Laboratory results: ChEMBL document CHEMBL5543084, “Development of cannabidiol derivatives as potent broad-spectrum antibacterial agents with membrane-disruptive mechanism” (Eur J Med Chem, 2024)
≈ marks a conversion by molar mass, not a printed value.

How the values were obtained:
[1] = test system: Staphylococcus aureus; experiment: Antibacterial activity against Staphylococcus aureus ATCC 29213 assessed as inhibition of bacterial growth incubated for 24 hrs by broth dilution method; type: functional
[2] = test system: Klebsiella pneumoniae; experiment: Antibacterial activity against Klebsiella pneumoniae ATCC 10031 assessed as inhibition of bacterial growth incubated for 24 hrs by broth dilution method; type: functional
[3] = test system: Staphylococcus aureus; experiment: Antibacterial activity against methicillin-resistant Staphylococcus aureus NCTC 10442 assessed as inhibition of bacterial growth incubated for 24 hrs by broth dilution method; type: functional
[4] = test system: Acinetobacter baumannii; experiment: Antibacterial activity against Acinetobacter baumannii ATCC 17978 assessed as inhibition of bacterial growth incubated for 24 hrs by broth dilution method; type: functional
[5] = test system: Staphylococcus aureus; experiment: Antibacterial activity against methicillin-resistant Staphylococcus aureus N315 assessed as inhibition of bacterial growth incubated for 24 hrs by broth dilution method; type: functional
[6] = test system: Escherichia coli; experiment: Antibacterial activity against Escherichia coli ATCC 25922 assessed as inhibition of bacterial growth incubated for 24 hrs by broth dilution method; type: functional
[7] = test system: Acinetobacter baumannii; experiment: Antibacterial activity against Acinetobacter baumannii R2889 assessed as inhibition of bacterial growth incubated for 24 hrs by broth dilution method; type: functional
[8] = test system: Klebsiella pneumoniae; experiment: Antibacterial activity against Klebsiella pneumoniae ATCC 14581 assessed as inhibition of bacterial growth incubated for 24 hrs by broth dilution method; type: functional
[9] = test system: Pseudomonas aeruginosa; experiment: Antibacterial activity against Pseudomonas aeruginosa ATCC 9027 assessed as inhibition of bacterial growth incubated for 24 hrs by broth dilution method; type: functional
[10] = Hemolytic activity against rabbit blood cells incubated for 1 hr relative to control; type: toxicity, cell-based, Oryctolagus cuniculus, Erythrocyte; conditions: rabbit blood cells (erythrocytes)

SMILES | MIC [1] | MIC [2] | MIC [3] | MIC [4] | MIC [5] | MIC [6] | MIC [7] | MIC [8] | MIC [9] | HC50 at 1 h [10]
C=C(C)[C@@H]1CCC(C)=C[C@H]1c1c(OCCCBr)cc(CCCCC)cc1OCCCBr | > 50 µg/mL | > 50 µg/mL | > 50 µg/mL | > 50 µg/mL | > 50 µg/mL | > 50 µg/mL | > 50 µg/mL | > 50 µg/mL | > 50 µg/mL | > 200 µg/mL
C=C(C)[C@@H]1CCC(C)=C[C@H]1c1c(OCCCCCN)cc(CCCCC)cc1OCCCCCN | 3.12 µg/mL (≈ 6.45 µM) | 6.25 µg/mL (≈ 12.9 µM) | 1.56 µg/mL (≈ 3.22 µM) | 6.25 µg/mL (≈ 12.9 µM) | 3.12 µg/mL (≈ 6.45 µM) | 6.25 µg/mL (≈ 12.9 µM) | 12.5 µg/mL (≈ 25.8 µM) | 6.25 µg/mL (≈ 12.9 µM) | > 50 µg/mL | 65.9 µg/mL
C=C(C)[C@@H]1CCC(C)=C[C@H]1c1c(OCCCCCNC(=N)N)cc(CCCCC)cc1OCCCCCNC(=N)N | 3.12 µg/mL (≈ 5.49 µM) | 1.56 µg/mL (≈ 2.74 µM) | 0.78 µg/mL (≈ 1.37 µM) | 3.12 µg/mL (≈ 5.49 µM) | 1.56 µg/mL (≈ 2.74 µM) | 3.12 µg/mL (≈ 5.49 µM) | 3.12 µg/mL (≈ 5.49 µM) | 3.12 µg/mL (≈ 5.49 µM) | 25 µg/mL (≈ 43.9 µM) | 60.5 µg/mL
C=C(C)[C@@H]1CCC(C)=C[C@H]1c1c(OCCCCNC)cc(CCCCC)cc1OCCCCNC | 3.12 µg/mL (≈ 6.45 µM) | 25 µg/mL (≈ 51.6 µM) | 3.12 µg/mL (≈ 6.45 µM) | 25 µg/mL (≈ 51.6 µM) | 3.12 µg/mL (≈ 6.45 µM) | 50 µg/mL (≈ 103 µM) | 25 µg/mL (≈ 51.6 µM) | 50 µg/mL (≈ 103 µM) | > 50 µg/mL | 107 µg/mL
C=C(C)[C@@H]1CCC(C)=C[C@H]1c1c(OCC(=O)N[C@@H](CCCNC(=N)N)C(=O)OC)cc(CCCCC)cc1OCC(=O)N[C@@H](CCCNC(=N)N)C(=O)OC | 1.56 µg/mL (≈ 2.02 µM) | 25 µg/mL (≈ 32.4 µM) | 0.78 µg/mL (≈ 1.01 µM) | 12.5 µg/mL (≈ 16.2 µM) | 1.56 µg/mL (≈ 2.02 µM) | 6.25 µg/mL (≈ 8.11 µM) | 25 µg/mL (≈ 32.4 µM) | 25 µg/mL (≈ 32.4 µM) | 50 µg/mL (≈ 64.9 µM) | > 200 µg/mL
C=C(C)[C@@H]1CCC(C)=C[C@H]1c1c(OCCCCCCCCCCNC(=N)N)cc(CCCCC)cc1OCCCCCCCCCCNC(=N)N | 50 µg/mL (≈ 70.5 µM) | > 50 µg/mL | 50 µg/mL (≈ 70.5 µM) | > 50 µg/mL | > 50 µg/mL | > 50 µg/mL | > 50 µg/mL | > 50 µg/mL | > 50 µg/mL | > 200 µg/mL
C=C(C)[C@@H]1CCC(C)=C[C@H]1c1c(OCC(=O)N[C@@H](CCCNC(=N)N)C(N)=O)cc(CCCCC)cc1OCC(=O)N[C@@H](CCCNC(=N)N)C(N)=O | 12.5 µg/mL (≈ 16.9 µM) | > 50 µg/mL | 12.5 µg/mL (≈ 16.9 µM) | 50 µg/mL (≈ 67.5 µM) | 12.5 µg/mL (≈ 16.9 µM) | > 50 µg/mL | > 50 µg/mL | > 50 µg/mL | 50 µg/mL (≈ 67.5 µM) | > 200 µg/mL
C=C(C)[C@@H]1CCC(C)=C[C@H]1c1c(OCCCCN(CC)CC)cc(CCCCC)cc1OCCCCN(CC)CC | 6.25 µg/mL (≈ 11 µM) | 50 µg/mL (≈ 87.9 µM) | 12.5 µg/mL (≈ 22 µM) | > 50 µg/mL | 6.25 µg/mL (≈ 11 µM) | > 50 µg/mL | 50 µg/mL (≈ 87.9 µM) | > 50 µg/mL | > 50 µg/mL | > 200 µg/mL
C=C(C)[C@@H]1CCC(C)=C[C@H]1c1c(OCC(=O)O)cc(CCCCC)cc1OCC(=O)O | > 50 µg/mL | > 50 µg/mL | > 50 µg/mL | > 50 µg/mL | > 50 µg/mL | > 50 µg/mL | > 50 µg/mL | > 50 µg/mL | > 50 µg/mL | > 200 µg/mL
C=C(C)[C@@H]1CCC(C)=C[C@H]1c1c(OCCCCCCCCCCN)cc(CCCCC)cc1OCCCCCCCCCCN | > 50 µg/mL | > 50 µg/mL | > 50 µg/mL | > 50 µg/mL | > 50 µg/mL | > 50 µg/mL | > 50 µg/mL | > 50 µg/mL | > 50 µg/mL | > 200 µg/mL
C=C(C)[C@@H]1CCC(C)=C[C@H]1c1c(OCCCCCCBr)cc(CCCCC)cc1OCCCCCCBr | > 50 µg/mL | > 50 µg/mL | > 50 µg/mL | > 50 µg/mL | > 50 µg/mL | > 100 µg/mL | > 50 µg/mL | > 50 µg/mL | > 50 µg/mL | > 200 µg/mL
